The source of these data is ChEMBL document CHEMBL1151894, “Novel immunoconjugates comprised of streptonigrin and 17-amino-geldanamycin attached via a dipeptide-p-aminobenzyl-amine linker system” (Bioorg Med Chem Lett, 2009).

What all share (assay type): functional, cell-based
The subject of one test is KARPAS-299. The test is described as follows: Cytotoxicity against CD30 expressing and CD70 deficient human KARPAS299 cells after 96 hrs by resazurin conversion assay. The following applies: KARPAS-299, 96 h. In general terms: Alamar Blue is a resazurin reagent that responds to reducing activity.
Test [1] in a line: Cytotoxicity against CD30 expressing and CD70 deficient human L540cy cells after 96 hrs by resazurin conversion assay.
In another test the test system is CAKI-1. The test is described as follows: Cytotoxicity against CD30 deficient and CD70 expressing human Caki1 cells after 96 hrs by resazurin conversion assay. The following applies: CAKI-1, 96 h.

As usually defined, the IC50 is the concentration that gives 50% inhibition. Low values mean greater potency, high ones weaker potency.

In the case of `COC1=C(N)C(=O)c2nc(-c3nc(C(=O)O)c(C)c(-c4ccc(OC)c(OC)c4O)c3N)ccc2C1=O` [STREPTONIGRIN], the IC50 is 0.4 nM in the test with KARPAS-299, 0.8 nM in test [1] and 0.4 nM with CAKI-1.
